ChEMBL document CHEMBL3351435, “New pyrrole derivatives with potent tubulin polymerization inhibiting activity as anticancer agents including hedgehog-dependent cancer” (J Med Chem, 2014)
Active and inactive are the calls of the source. No cut-off for these calls is given here.

Experiments:
[1] = biological target: Tubulin; assay: Inhibition of tubulin (unknown origin) polymerization incubated 15 mins prior to GTP addition by spectrophotometry; format: protein-complex assay, Homo sapiens
[2] = tested on: MCF7; assay: Cytotoxicity against human MCF7 cells after 96 hrs by Giemsa staining-based light microscopy; format: functional, cell-based; conditions: MCF7, 96 h
[3] = biological target: T1, Tubulin (Homo sapiens) (UniProt P68371+Q9H4B7+P0DPH7+P68366+Q13509+Q71U36+P04350+Q3ZCM7+P07437+P68363+Q9BQE3+Q6PEY2+Q13885+Q9BVA1+Q9BUF5); assay: Displacement of [3H]colchicine from tubulin (unknown origin) at 5 uM after 10 mins; format: protein-complex assay
[4] = tested on: HeLa; assay: Cytotoxicity against human HeLa cells assessed as growth inhibition after 48 hrs by MTT method; format: functional, cell-based
[5] = tested on: HT-29; assay: Cytotoxicity against human HT-29 cells assessed as growth inhibition after 48 hrs by MTT method; format: functional, cell-based; conditions: HT-29, 48 h
[6] = tested on: A549; assay: Cytotoxicity against human A549 cells assessed as growth inhibition after 48 hrs by MTT method; format: functional, cell-based; conditions: A549, 48 h
[7] = tested on: NCI/ADR-RES; assay: Cytotoxicity against human NCI/ADR-RES cells assessed as growth inhibition after 96 hrs by Giemsa staining-based light microscopy; format: functional, cell-based
[8] = Cytotoxicity against human MESSA cells assessed as growth inhibition after 72 hrs by CellTitre-Glo assay; format: functional, cell-based; conditions: MES-SA
[9] = Cytotoxicity against human MESSA/DX5 cells assessed as growth inhibition after 72 hrs by CellTitre-Glo assay; format: functional, cell-based; conditions: MES-SA/Dx5, 72 h
[10] = cells; conditions: Homo sapiens, OVCAR-8, 96 h
Description: Cytotoxicity against human OVCAR8 cells assessed as growth inhibition after 96 hrs by Giemsa staining-based light microscopy

[11] = tested on: K562; assay: Cytotoxicity against human K562 cells assessed as growth inhibition after 96 hrs by Giemsa staining-based light microscopy; format: functional, cell-based; conditions: K562, 96 h
[12] = tested on: K562; assay: Cell cycle arrest in human K562 cells assessed as mitotic index at 10 times IC50 (reference value: […] +/- […]%); format: functional
[13] = biological target: T1, Tubulin (Homo sapiens); assay: Inhibition of tubulin (unknown origin) polymerization at 20 uM incubated 15 mins prior to GTP addition by spectrophotometry; format: protein-complex assay
[14] = Cell cycle arrest in human PC3 cells assessed as accumulation at G2/M phase at 500 nM after 24 hrs by propidium iodide staining-based flow cytometry; format: functional; conditions: PC-3
[15] = tested on: RD; assay: Cell cycle arrest in human RD cells assessed as accumulation at G2/M phase at 500 nM after 24 hrs by propidium iodide staining-based flow cytometry; format: functional
[16] = Cell cycle arrest in human PC3 cells assessed as rounded cells at 500 nM after 24 hrs by propidium iodide staining-based flow cytometry; format: functional; conditions: PC-3
[17] = tested on: RD; assay: Cell cycle arrest in human RD cells assessed as rounded cells at 500 nM after 24 hrs by propidium iodide staining-based flow cytometry; format: functional
[18] = Cell cycle arrest in human PC3 cells at 500 to 2000 nM incubated for 24 hrs followed by compound washout measured after 24 hrs; format: functional, cell-based; conditions: PC-3
[19] = tested on: RD; assay: Cell cycle arrest in human RD cells at 1000 to 2000 nM incubated for 24 hrs followed by compound washout measured after 24 hrs; format: functional, cell-based
[20] = tested on: RD; assay: Cell cycle arrest in human RD cells at 500 nM incubated for 24 hrs followed by compound washout measured after 24 hrs; format: functional, cell-based
[21] = tested on: HepG2; assay: Cell cycle arrest in human HepG2 cells at 500 to 2000 nM incubated for 24 hrs followed by compound washout measured after 24 hrs; format: functional, cell-based

Structure (SMILES): COc1cccc(-n2ccc(C(=O)c3cc(OC)c(OC)c(OC)c3)c2)c1
- IC50 [1]: 1800 nM
- IC50 [2]: 600 nM
- inhibition [3]: 66%
- IC50 [4]: 1000 nM
- IC50 [5]: 800 nM
- IC50 [6]: 3000 nM
- IC50 [7]: 90 nM
- IC50 [8]: 262 nM
- IC50 [9]: 471 nM
- IC50 [10]: 250 nM

Structure (SMILES): CNc1cccc(-n2ccc(C(=O)c3cc(OC)c(OC)c(OC)c3)c2)c1
- IC50 [1]: 1000 nM
- inhibition [3]: 92%
- IC50 [11]: 30 nM
- Activity [12]: 61%

Structure (SMILES): COc1cc(C(=O)c2ccn(-c3cccc([N+](=O)[O-])c3)c2)cc(OC)c1OC
- IC50 [1]: 8900 nM

Structure (SMILES): COc1ccc(-n2ccc(C(=O)c3cc(OC)c(OC)c(OC)c3)c2)cc1OC(C)C
- IC50 [1]: 1700 nM
- inhibition [3]: 48%
- IC50 [4]: 800 nM
- IC50 [5]: 800 nM
- IC50 [6]: 1000 nM

Structure (SMILES): COc1ccc(C(=O)c2ccn(-c3cc(OC)c(OC)c(OC)c3)c2)cc1O
- inhibition [13]: inactive

Structure (SMILES): COc1cc(C(=O)c2ccn(-c3ccc(O)cc3)c2)cc(OC)c1OC
- IC50 [2]: 450 nM
- inhibition [3]: 59%

Structure (SMILES): COc1cc(C(=O)c2ccn(-c3ccc(N)cc3)c2)cc(OC)c1OC
- IC50 [1]: 1300 nM
- IC50 [2]: 15 nM
- inhibition [3]: 81%

Structure (SMILES): COc1cc(C(=O)c2ccn(-c3ccc(C)cc3)c2)cc(OC)c1OC
- IC50 [1]: 900 nM
- inhibition [3]: 95%
- IC50 [11]: 30 nM
- Activity [12]: 61%

Structure (SMILES): COc1cc(C(=O)c2ccn(-c3ccc(Cl)cc3)c2)cc(OC)c1OC
- IC50 [1]: 2300 nM
- IC50 [2]: 200 nM
- inhibition [3]: 73%

Structure (SMILES): COc1ccc(C(=O)c2ccn(-c3cc(OC)c(OC)c(OC)c3)c2)cc1OC(C)C
- inhibition [13]: inactive

Structure (SMILES): COc1cc(C(=O)c2ccn(S(=O)(=O)c3ccccc3)c2)cc(OC)c1OC
- IC50 [1]: 16000 nM

Structure (SMILES): COc1cc(C(=O)c2ccn(-c3ccccc3C)c2)cc(OC)c1OC
- IC50 [1]: 13000 nM

Structure (SMILES): COc1cc(C(=O)c2ccn(-c3ccccc3O)c2)cc(OC)c1OC
- IC50 [1]: 1700 nM
- IC50 [2]: 530 nM
- inhibition [3]: 67%

Structure (SMILES): COc1cc(C(=O)c2ccn(-c3cccc(N(C)C)c3)c2)cc(OC)c1OC
- IC50 [1]: 1500 nM
- IC50 [2]: 1000 nM
- inhibition [3]: 60%

Structure (SMILES): COc1ccc(-n2ccc(C(=O)c3cc(OC)c(OC)c(OC)c3)c2)cc1O
- IC50 [1]: 1300 nM
- IC50 [2]: 4500 nM
- inhibition [3]: 79%
- IC50 [4]: 200 nM
- IC50 [5]: > 10000 nM
- IC50 [6]: > 10000 nM

Structure (SMILES): COc1cc(C(=O)c2ccn(-c3cc(OC)c(OC)c(OC)c3)c2)cc(OC)c1OC
- IC50 [1]: > 40000 nM

Structure (SMILES): COc1cc(C(=O)c2ccn(-c3cccc(N4CCCCC4)c3)c2)cc(OC)c1OC
- inhibition [13]: inactive

Structure (SMILES): COc1cc(C(=O)c2ccn(-c3cccc(OCc4ccccc4)c3)c2)cc(OC)c1OC
- inhibition [13]: inactive

Structure (SMILES): COc1ccc(-n2ccc(C(=O)c3cc(OC)c(OC)c(OC)c3)c2)cc1
- IC50 [1]: 1200 nM
- IC50 [2]: 250 nM
- inhibition [3]: 76%
- IC50 [4]: 150 nM
- IC50 [5]: 200 nM
- IC50 [6]: 80 nM
- IC50 [7]: 17 nM
- IC50 [8]: 63 nM
- IC50 [9]: 87 nM
- IC50 [10]: 60 nM

Structure (SMILES): COc1ccccc1-n1ccc(C(=O)c2cc(OC)c(OC)c(OC)c2)c1
- IC50 [1]: 2700 nM
- IC50 [2]: 3500 nM
- inhibition [3]: 50%
- IC50 [4]: 900 nM
- IC50 [5]: 1000 nM
- IC50 [6]: 1000 nM
- IC50 [7]: 200 nM
- IC50 [8]: 515 nM
- IC50 [9]: 653 nM
- IC50 [10]: 450 nM

Structure (SMILES): COc1cc(C(=O)c2ccn(-c3cccc(O)c3)c2)cc(OC)c1OC
- IC50 [1]: 1200 nM
- IC50 [2]: 400 nM
- inhibition [3]: 86%

Structure (SMILES): COc1cc(C(=O)c2cc[nH]c2)cc(OC)c1OC
- IC50 [1]: > 40000 nM

Structure (SMILES): COc1cc(C(=O)c2ccn(C)c2)cc(OC)c1OC
- IC50 [1]: > 40000 nM

Structure (SMILES): COc1ccc(-n2ccc(C(=O)c3cc(OC)c(OC)c(OC)c3)c2)cc1[N+](=O)[O-]
- IC50 [2]: 830 nM

Structure (SMILES): COc1ccc(-n2ccc(C(=O)c3cc(OC)c(OC)c(OC)c3)c2)cc1OC
- IC50 [1]: 2100 nM
- IC50 [2]: 100 nM
- inhibition [3]: 56%

Structure (SMILES): COc1cc(C(=O)c2ccn(-c3cccc(NS(C)(=O)=O)c3)c2)cc(OC)c1OC
- IC50 [1]: 860 nM
- IC50 [2]: 60 nM
- inhibition [3]: 84%
- Activity [12]: 61%

Structure (SMILES): COc1cc(C(=O)c2ccn(Cc3ccccc3)c2)cc(OC)c1OC
- IC50 [1]: > 40000 nM

Structure (SMILES): COc1cc(C(=O)c2ccn(-c3ccccc3F)c2)cc(OC)c1OC
- IC50 [1]: 1000 nM
- IC50 [2]: 1000 nM
- inhibition [3]: 77%

Structure (SMILES): COc1cc(C(=O)c2ccn(-c3ccccc3OC(C)C)c2)cc(OC)c1OC
- IC50 [1]: 6100 nM

Structure (SMILES): COc1cc(C(=O)c2ccn(-c3cccc(C)c3)c2)cc(OC)c1OC
- IC50 [1]: 950 nM
- IC50 [2]: 50 nM
- inhibition [3]: 79%

Structure (SMILES): COc1cc(C(=O)c2ccn(-c3ccccc3Cl)c2)cc(OC)c1OC
- IC50 [1]: 8800 nM
- IC50 [2]: 4500 nM

Structure (SMILES): COc1cc(C(=O)c2ccn(-c3cccc(Cl)c3)c2)cc(OC)c1OC
- IC50 [1]: 2200 nM
- IC50 [2]: 600 nM
- inhibition [3]: 58%

Structure (SMILES): CC[C@]1(O)C[C@H]2CN(CCc3c([nH]c4ccccc34)[C@@](C(=O)OC)(c3cc4c(cc3OC)N(C=O)[C@H]3[C@@](O)(C(=O)OC)[C@H](OC(C)=O)[C@]5(CC)C=CCN6CC[C@]43[C@@H]65)C2)C1
- Activity [14]: Active
- Activity [15]: Active
- Activity [16]: Active
- Activity [17]: Active
- Activity [18]: inactive
- Activity [19]: inactive
- Activity [20]: Active
- Activity [21]: inactive

Structure (SMILES): COc1cc(C(=O)c2ccn(-c3ccccc3[N+](=O)[O-])c2)cc(OC)c1OC
- inhibition [13]: inactive

Structure (SMILES): COc1cc(C(=O)c2ccn(-c3ccc(F)cc3)c2)cc(OC)c1OC
- IC50 [1]: 1400 nM
- IC50 [2]: 190 nM
- inhibition [3]: 78%

Structure (SMILES): COc1cc(C(=O)c2ccn(-c3ccc([N+](=O)[O-])cc3)c2)cc(OC)c1OC
- inhibition [13]: inactive

Structure (SMILES): O=C(c1ccccc1)c1ccn(-c2ccccc2)c1
- inhibition [13]: inactive

Structure (SMILES): COc1ccc(-n2ccc(C(=O)c3cc(OC)c(OC)c(OC)c3)c2)cc1N
- IC50 [1]: 1300 nM
- IC50 [2]: 470 nM
- inhibition [3]: 89%

Structure (SMILES): COc1cc(C(=O)c2ccn(-c3ccccc3N)c2)cc(OC)c1OC
- IC50 [1]: 6800 nM

Structure (SMILES): COc1cc(-n2ccc(C(=O)c3ccccc3)c2)cc(OC)c1OC
- inhibition [13]: inactive

Structure (SMILES): COc1cc(C(=O)c2ccn(-c3cccc(F)c3)c2)cc(OC)c1OC
- IC50 [1]: 2100 nM
- IC50 [2]: 1300 nM
- inhibition [3]: 55%

Structure (SMILES): COc1cc(C(=O)c2ccn(-c3cccc(-n4cccc4)c3)c2)cc(OC)c1OC
- IC50 [1]: 2500 nM
- IC50 [2]: 43 nM
- inhibition [3]: 27%
- IC50 [11]: 90 nM
- Activity [12]: 47%

Structure (SMILES): COc1cc(C(=O)c2ccn(-c3cccc(OC(C)C)c3)c2)cc(OC)c1OC
- IC50 [1]: 2500 nM
- IC50 [2]: 250 nM
- inhibition [3]: 17%

Structure (SMILES): COc1cc(C(=O)c2ccn(-c3ccc(OC(C)C)cc3)c2)cc(OC)c1OC
- inhibition [13]: inactive
